Source: patent publication US20160346291A1, “COMPOSITIONS AND THERAPEUTIC METHODS FOR ACCELERATED PLAQUE REGRESSION” (Resverlogix Corp, priority 2013, published 2016)

Each molecule was assayed on ApoA-I mRNA (assay: ApoA-I mRNA quantitation in HepG2 cells (real-time PCR)). Details: concentration less than or equal to 100 uM, fold induction relative to DMSO control.
Format: cell-based
Design: key: Active: An active compound is one that causes a >15% increase in ApoA-I mRNA at a concentration less than or equal to 100 uM
Procedure: At time of harvesting, the spent media was removed from the HepG2 cells and immediately placed on ice (for immediate use) or at −80° C. (for future use) in ApoA-I and albumin ELISAs. The cells remaining in the plate wells were rinsed in 200 μL PBS. PBS was carefully removed to avoid removing any loosely attached cells.
Once the PBS was removed, 85 μL cell lysis solution was added to the cells in each well and incubated for 5-10 min at room temperature, to allow for complete cell lysis and detachment. mRNA was then prepared using the “mRNA Catcher PLUS plate” from Invitrogen, according to the protocol supplied. After the last wash, as much wash buffer as possible was aspirated without allowing the wells to dry. Elution Buffer (E3, 80 μL) was then added to each well. mRNA was then eluted by incubating the mRNA Catcher PLUS plate with Elution Buffer for 5 min at 68° C. and then immediately placing the plate on ice.
The eluted mRNA was isolated and then used in a one-step real-time […]-PCR reaction, using components of the Ultra Sense Kit together with Applied Biosystems primer-probe mixes. Real-time PCR data was analyzed, using the Ct values, to determine the fold induction of each unknown sample, relative to the control (that is, relative to the control for each independent DMSO concentration).
The following compounds of Formula I were evaluated in this assay. An active compound is one that causes a >15% increase in ApoA-I mRNA at a concentration less than or equal to 100 uM.

Question: With `COc1cc(OC)c2c(=O)[nH]c(-c3cccc(C)n3)nc2c1` [5,7-dimethoxy-2-(6-methylpyridin-2-yl)quinazolin-4(3H)-one] as the molecule, how does the “Effect on ApoA-I mRNA levels” value read?
Answer: Its value is “Active”.

Question: `COc1cc(OC)c2c(=O)[nH]c(-c3cccnc3Oc3ccc(Cl)cc3)nc2c1` [2-(2-(4-chlorophenoxy)pyridin-3-yl)-5,7-dimethoxyquinazolin-4(3H)-one] was tested. Which “Effect on ApoA-I mRNA levels” value did it give?
Answer: The value was “Inactive”.

Question: Which “Effect on ApoA-I mRNA levels” value does the source give for `COc1cc(OC)c2c(=O)[nH]c(-c3cc(C)c(OCC(C)(C)O)c(C)c3)cc2c1` [3-(4-(2-hydroxy-2-methylpropoxy)-3,5-dimethylphenyl)-6,8-dimethoxyisoquinolin-1(2H)-one] here?
Answer: Its value is “Active”.

Question: Which “Effect on ApoA-I mRNA levels” value does the source give for `Oc1ccc(-c2cc3ncccc3cn2)cc1` [4-(1,6-naphthyridin-7-yl)phenol] here?
Answer: Its value is “Active”.

Question: For `COc1cc(OC)c2c(=O)[nH]c(-c3cc(C)c(OCCN4CCOCC4)c(C)c3)cc2n1` [7-(3,5-dimethyl-4-(2-morpholinoethoxy)phenyl)-2,4-dimethoxy-1,6-naphthyridin-5(6H)-one], which “Effect on ApoA-I mRNA levels” value is on record?
Answer: Its value is “Active”.

Question: Which “Effect on ApoA-I mRNA levels” value does the source give for `COc1cc(OC)c2c(=O)[nH]c(-c3ccc(N(CCO)CCO)cc3)nc2n1` [2-(4-(bis(2-hydroxyethyl)amino)phenyl)-5,7-dimethoxypyrido[2,3-d]pyrimidin-4(3H)-one] here?
Answer: Its value is “Active”.

Question: How did the “Effect on ApoA-I mRNA levels” value turn out when `COc1cc(OC)c2c(=O)[nH]c(-c3ccc(N(C)C)c4ccccc34)nc2c1` [2-(4-(dimethylamino)naphthalene-1-yl)-5,7-dimethoxyquinazolin-4(3H)-one] was run?
Answer: The value was “Active”.

Question: Which “Effect on ApoA-I mRNA levels” value does the source give for `COc1cc(OC)c2c(=O)[nH]c(-c3cc(C)c(OCCOCc4ccccc4)c(C)c3)nc2n1` [2-(4-(2-(benzyloxy)ethoxy)-3,5-dimethylphenyl)-5,7-dimethoxypyrido[2,3-d]pyrimidin-4(3H)-one] here?
Answer: The value was “Inactive”.

Question: With `COc1cc2nc(-c3ccc4c(c3)OCCO4)[nH]c(=O)c2cc1OC` [2-(2,3-dihydrobenzo[b][1,4]dioxin-6-yl)-6,7-dimethoxyquinazolin-4(3H)-one] as the molecule, how does the “Effect on ApoA-I mRNA levels” value read?
Answer: Its value is “Active”.

Question: Which “Effect on ApoA-I mRNA levels” value does the source give for `COc1cc2nc(-c3cc(C)c(OCC(N)=O)c(C)c3)[nH]c(=O)c2cc1OC` [2-(4-(6,7-dimethoxy-4-oxo-3,4-dihydroquinazolin-2-yl)-2,6-dimethylphenoxy)acetamide] here?
Answer: Its value is “Active”.

Question: How did the “Effect on ApoA-I mRNA levels” value turn out when `COc1cc(OC)c2c(=O)[nH]c(-c3cc(C)c(OCCO)c(C)c3)cc2n1` [7-(4-(2-hydroxyethoxy)-3,5-dimethylphenyl)-2,4-dimethoxy-1,6-naphthyridin-5(6H)-one] was run?
Answer: Its value is “Active”.

Question: `COc1cc(OC)c2c(=O)[nH]c(-c3cc(C)c(OCCN)c(C)c3)nc2c1` [2-(4-(2-aminoethoxy)-3,5-dimethylphenyl)-5,7-dimethoxyquinazolin-4(3H)-one] was tested. Which “Effect on ApoA-I mRNA levels” value did it give?
Answer: Its value is “Active”.

Question: For `COc1cc(OC)c2c(=O)[nH]c(-c3ccc(O)cc3)nc2c1` [2-(4-hydroxyphenyl)-5,7-dimethoxyquinazolin-4(3H)-one], which “Effect on ApoA-I mRNA levels” value is on record?
Answer: The value was “Active”.

Question: With `COc1cc(OC)c2c(=O)[nH]c(-c3ccc(CN4CCOCC4)cc3)nc2c1` [5,7-dimethoxy-2-(4-(morpholinomethyl)phenyl)quinazolin-4(3H)-one] as the molecule, how does the “Effect on ApoA-I mRNA levels” value read?
Answer: Its value is “Active”.

Question: `COc1cc(OC)c2c(=O)[nH]c(-c3cc(C)c(OCCNC(=O)Nc4ccccc4)c(C)c3)nc2c1` [1-(2-(4-(5,7-dimethoxy-4-oxo-3,4-dihydroquinazolin-2-yl)-2,6-dimethylphenoxy)ethyl)-3-phenylurea] was tested. Which “Effect on ApoA-I mRNA levels” value did it give?
Answer: The value was “Active”.

Question: For `COc1cc(OC)c2c(=O)[nH]c(-c3ccc(C)cc3)nc2c1` [5,7-dimethoxy-2-p-tolylquinazolin-4(3H)-one], which “Effect on ApoA-I mRNA levels” value is on record?
Answer: Its value is “Inactive”.

Question: `COc1cc(OC)c2c(=O)[nH]c(-c3cc(C)c(O)c(C)c3)cc2n1` [7-(4-hydroxy-3,5-dimethylphenyl)-2,4-dimethoxy-1,6-naphthyridin-5(6H)-one] was tested. Which “Effect on ApoA-I mRNA levels” value did it give?
Answer: The value was “Active”.

Question: With `COc1cc(OC)c2cnc(-c3cc(C)c(OCCN4CCOCC4)c(C)c3)cc2c1` [4-(2-(4-(6,8-dimethoxyisoquinolin-3-yl)-2,6-dimethylphenoxy)ethyl)morpholine] as the molecule, how does the “Effect on ApoA-I mRNA levels” value read?
Answer: The value was “Active”.

Question: For `COCCOc1c(C)cc(-c2nc3cc(OC)cc(OC)c3c(=O)[nH]2)cc1C` [5,7-dimethoxy-2-(4-(2-methoxyethoxy)-3,5-dimethylphenyl)quinazolin-4(3H)-one], which “Effect on ApoA-I mRNA levels” value is on record?
Answer: Its value is “Active”.

Question: With `COc1cc(OC)c2c(=O)nc(-c3cc(C)c(O)c(C)c3)n(C)c2c1` [2-(4-hydroxy-3,5-dimethylphenyl)-5,7-dimethoxy-1-methylquinazolin-4(1H)-one] as the molecule, how does the “Effect on ApoA-I mRNA levels” value read?
Answer: The value was “Active”.

Question: Which “Effect on ApoA-I mRNA levels” value does the source give for `Cc1cc(-c2nc3ccccc3c(=O)[nH]2)cc(C)c1OCCN1CCOCC1` [2-(3,5-dimethyl-4-(2-morpholinoethoxy)phenyl)quinazolin-4(3H)-one] here?
Answer: The value was “Active”.

Question: `COc1cc(OC)c2c(=O)[nH]c(-c3cc(C)c(O)c(C)c3)nc2c1` [2-(4-hydroxy-3,5-dimethylphenyl)-5,7-dimethoxyquinazolin-4(3H)-one] was tested. Which “Effect on ApoA-I mRNA levels” value did it give?
Answer: Its value is “Active”.

Question: How did the “Effect on ApoA-I mRNA levels” value turn out when `COc1cc2nc(-c3cc(C)c(OCCO)c(C)c3)[nH]c(=O)c2cc1OC` [2-(4-(2-hydroxyethoxy)-3,5-dimethylphenyl)-6,7-dimethoxyquinazolin-4(3H)-one] was run?
Answer: The value was “Active”.

Question: For `Cl.Cl.Cl.Cl.N=C(N)NCCCC(N)C(=O)Oc1ccc(-c2cc3ccccc3cn2)cc1` (stereo not shown) [4-(Isoquinolin-3-yl)phenyl 2-amino-5-guanidinopentanoate tetrahydrochloride], which “Effect on ApoA-I mRNA levels” value is on record?
Answer: The value was “Active”.

Question: `COc1cccc2c(=O)[nH]c(-c3ccc(O)c(F)c3)cc12` [3-(3-fluoro-4-hydroxyphenyl)-5-methoxyisoquinolin-1(2H)-one] was tested. Which “Effect on ApoA-I mRNA levels” value did it give?
Answer: The value was “Inactive”.

Question: How did the “Effect on ApoA-I mRNA levels” value turn out when `COc1cc(OC)c2c(=O)[nH]c(-c3cc(C)c(OCCO)c(C)c3)cc2c1` [3-(4-(2-hydroxyethoxy)-3,5-dimethylphenyl)-6,8-dimethoxyisoquinolin-1(2H)-one] was run?
Answer: Its value is “Active”.

Question: `COc1cc(OC)c2c(=O)[nH]c(-c3cc(C)c(O)c(C)c3)cc2c1` [3-(4-hydroxy-3,5-dimethylphenyl)-6,8-dimethoxyisoquinolin-1(2H)-one] was tested. Which “Effect on ApoA-I mRNA levels” value did it give?
Answer: Its value is “Active”.

Question: Which “Effect on ApoA-I mRNA levels” value does the source give for `COc1cc(OC)c2c(=O)[nH]c(-c3ccccc3C)nc2c1` [5,7-dimethoxy-2-o-tolylquinazolin-4(3H)-one] here?
Answer: The value was “Active”.

Question: With `COc1cc(OC)c2c(=O)[nH]c(-c3cc(C)c(OCCNC(=O)C(C)C)c(C)c3)nc2c1` [N-(2-(4-(5,7-dimethoxy-4-oxo-3,4-dihydroquinazolin-2-yl)-2,6-dimethylphenoxy)ethyl)isobutyramide] as the molecule, how does the “Effect on ApoA-I mRNA levels” value read?
Answer: The value was “Active”.

Question: With `COc1cc2cc(-c3cc(C)c(O)c(C)c3)n(C)c(=O)c2c(OC)c1CN1CCOCC1` [3-(4-hydroxy-3,5-dimethylphenyl)-6,8-dimethoxy-2-methyl-7-(morpholinomethyl) isoquinolin-1(2H)-one] as the molecule, how does the “Effect on ApoA-I mRNA levels” value read?
Answer: The value was “Active”.

Question: How did the “Effect on ApoA-I mRNA levels” value turn out when `COc1cc2nc(-c3ccc(N(CCO)CCO)cc3)[nH]c(=O)c2cc1OC` [2-(4-(bis(2-hydroxyethyl)amino)phenyl)-6,7-dimethoxyquinazolin-4(3H)-one] was run?
Answer: Its value is “Active”.

Question: How did the “Effect on ApoA-I mRNA levels” value turn out when `O=C(O)COc1ccc(-c2nc3ccccc3c(=O)[nH]2)cc1` [2-(4-(4-oxo-3,4-dihydroquinazolin-2-yl)phenoxy)acetic acid] was run?
Answer: The value was “Active”.

Question: For `COc1cc(OC)c2c(=O)[nH]c(-c3cc(C)c(OCCN4CCOCC4)c(C)c3)nc2c1` [2-(3,5-dimethyl-4-(2-morpholinoethoxy)phenyl)-5,7-dimethoxyquinazolin-4(3H)-one], which “Effect on ApoA-I mRNA levels” value is on record?
Answer: Its value is “Active”.

Question: With `COc1cc(OC)c2c(=O)[nH]c(-c3cc(C)c(OCCNC(=O)c4ccc(C)cc4)c(C)c3)nc2c1` [N-(2-(4-(5,7-Dimethoxy-4-oxo-3,4-dihydroquinazolin-2-yl)-2,6-dimethylphenoxy)ethyl)-4-methylbenzamide] as the molecule, how does the “Effect on ApoA-I mRNA levels” value read?
Answer: Its value is “Active”.

Question: With `O=c1[nH]c(-c2ccc(O)cc2)cc2ccccc12` [3-(4-Hydroxyphenyl)-2H-isoquinolin-1-one] as the molecule, how does the “Effect on ApoA-I mRNA levels” value read?
Answer: Its value is “Active”.

Question: How did the “Effect on ApoA-I mRNA levels” value turn out when `COc1cc(OC)c2c(=O)[nH]c(-c3cccc([N+](=O)[O-])c3)nc2c1` [5,7-dimethoxy-2-(3-nitrophenyl)quinazolin-4(3H)-one] was run?
Answer: Its value is “Inactive”.

Question: For `CNC(=O)c1ccccc1C(=O)NCCOc1c(C)cc(-c2nc3cc(OC)cc(OC)c3c(=O)[nH]2)cc1C` [N1-(2-(4-(5,7-dimethoxy-4-oxo-3,4-dihydroquinazolin-2-yl)-2,6-dimethylphenoxy)ethyl)-N2-methylphthalamide], which “Effect on ApoA-I mRNA levels” value is on record?
Answer: The value was “Active”.

Question: Which “Effect on ApoA-I mRNA levels” value does the source give for `CCN1CCN(Cc2ccc(-c3nc4cc(OC)cc(OC)c4c(=O)[nH]3)cc2)CC1` [2-(4-((4-ethylpiperazin-1-yl)methyl)phenyl)-5,7-dimethoxyquinazolin-4(3H)-one] here?
Answer: Its value is “Active”.

Question: Which “Effect on ApoA-I mRNA levels” value does the source give for `COc1cc(OC)c2c(=O)[nH]c(-c3ccc(OCCO)c(OC)c3)nc2c1` [2-(4-(2-hydroxyethoxy)-3-methoxyphenyl)-5,7-dimethoxyquinazolin-4(3H)-one] here?
Answer: Its value is “Active”.

Question: For `COc1cc(OC)c2c(=O)[nH]c(-c3cc(C)c(OCCOC(=O)NC4CCCCC4)c(C)c3)nc2c1` [2-(4-(5,7-dimethoxy-4-oxo-3,4-dihydroquinazolin-2-yl)-2,6-dimethylphenoxy)ethyl cyclohexylcarbamate], which “Effect on ApoA-I mRNA levels” value is on record?
Answer: Its value is “Active”.
